One series has as its system PC-3. Nature of the series: Cytotoxicity against human PC3 cells after 24 hrs by MTT assay. The class given is functional, cell-based. The conditions noted are these: PC-3, 24 h. (Tetrazolium dyes change colour on reduction, which living cells bring about.)
Series [1] concerns the target Voltage-gated L-type calcium channel (Rattus norvegicus, UniProt P22002+Q02485+P27732). Nature of the series: Inhibition of voltage-dependent L-type calcium channel in Wistar rat 3rd-order mesenteric artery assessed as reduction in norepinephrine-induced vessel contraction by myographic method. Conditions: for inhibition (INH): rat.
In a further series the test system is A549. The series can be described thus: Cytotoxicity against human A549 cells after 24 hrs by MTT assay. The class given is functional, cell-based. Conditions: A549, 24 h.
The next series has as its system MCF7. Nature of the series: Cytotoxicity against human MCF7 cells after 24 hrs by MTT assay. The class given is functional, cell-based. Conditions: MCF7, 24 h.
The species named for series [2] is Mus musculus. Nature of the series: Vasorelaxant activity in mouse MOVAS1 cells assessed as reduction in KCl-induced increase in intracellular calcium level at 0.1 to 0.5 uM pretreated for 10 mins followed by KCl addition by Fluo-3/AM dye based flow cytometry. The class given is functional, cell-based. Background: Calcium flux is commonly read through the fluorescence of an indicator in the cells.

The target in series [3] is T1, L-type calcium channel (Mus musculus, UniProt Q01815+Q02789+Q99246+Q9JIS7). Nature of the series: Inhibition of voltage-dependent L-type calcium channel in mouse MOVAS cells assessed as reduction in KCl/extracellular Ca2+-induced increase in intracellular calcium level pretreated for 10 mins followed by KCl addition by Fluo-3/AM dye based flow cytometry. The class given is cell-based.

A further series has as its system Artery. Nature of the series: Vasorelaxant activity in Wistar rat endothelium-denuded 3rd-order mesenteric artery assessed as reduction in norepinephrine-induced vessel contraction by myographic method. The class given is functional, tissue-based.
For series [4], the species on record is Mus musculus. The series can be described thus: Vasorelaxant activity in mouse MOVAS1 cells assessed as reduction in KCl-induced increase in intracellular calcium level at 0.1 to 0.5 uM pretreated for 10 mins followed by KCl addition by Fluo-3/AM dye based laser scanning microscopic method. The class given is functional, cell-based.
Series [5] concerns the target T1, L-type calcium channel. The series can be described thus: Inhibition of voltage-dependent L-type calcium channel in mouse MOVAS cells assessed as reduction in KCl/extracellular Ca2+-induced increase in intracellular calcium level at 0.1 to 0.5 uM pretreated for 10 mins followed by KCl addition by Fluo-3/AM dye based laser scanning microscopic method. The class given is cell-based.

This is an account of results in ChEMBL document CHEMBL4229480, “Terpenoids with vasorelaxant effects from the Chinese liverwort Scapania carinthiaca” (Bioorg Med Chem, 2018).

Where a name gives a salt, the structure may show the parent alone. The source made the active and inactive calls. The calls are words filed in the database; no cut-off is given here.

As usually defined, the IC50 is the concentration that gives 50% inhibition. A low value points to greater potency. As usually defined, the EC50 is the concentration needed to bring the measured effect to its halfway point.

As to `C=C1CC[C@H](C)[C@@](C)(CCC2=CC(OC)OC2=O)C/C=C\C=C/1C(=O)O` (stereo partly specified), the IC50 in the series with PC-3, in the series with A549 and in the series on MCF7 was greater than 40 µM in each case. For the same compound, the EC50 in series [1] was 22 µM. For the same compound, in series [1], the “inhibition (INH)” value is “Dose-dependent effect”.

On to `C=C1CC[C@H](C)[C@@](C)(CCC2=CCOC2=O)C/C=C\C=C/1C(=O)O`, for which the IC50 with PC-3, in the series on A549 and in the series with MCF7 was greater than 40 µM throughout. Further, in series [1], the 50% effective concentration (EC50) was 14 µM. Also, the “inhibition (INH)” value in [1] is recorded as “Dose-dependent effect”.

Turning to `C=C1C(=O)O[C@H]2C[C@]3(C)CC[C@H](O)C(C)=C3C[C@@H]12`, the IC50 in the series on PC-3, in the series with A549 and in the series with MCF7 was greater than 40 µM throughout.

With `C=C1C(=O)[C@@]23C[C@@H]1CC[C@@H]2[C@@]1(C)CCCC(C)(C)[C@@H]1COC3=O`, the IC50 in the series on PC-3 worked out at 11.5 µM; in the series with A549, 2.3 µM; in the series on MCF7, 6.6 µM.

For the compound `CCOC1C=C(CC[C@]2(C)[C@@H](C)CC[C@@]3(C)C(C(=O)O)=CC=C[C@@H]23)C(=O)O1` (stereo partly specified), the IC50 in the series with PC-3, with A549 and in the series with MCF7 was greater than 40 µM in each case. Further, the EC50 in series [1] was found to be 14 µM. Moreover, in [1], the “inhibition (INH)” value is “Dose-dependent effect”.

`C=C1C(=O)O[C@H]2C[C@]3(C)CCC=C(C)[C@H]3C[C@@H]12`: the IC50 with PC-3, in the series on A549 and in the series with MCF7 was greater than 40 µM in each case.

On to `CCOC1C=C(CC[C@]2(C)[C@@H](C)CC[C@@]3(C)C(C(=O)O)=CCC[C@@H]23)C(=O)O1` (stereo partly specified), for which the IC50 with PC-3, in the series with A549 and in the series with MCF7 was greater than 40 µM throughout.

Regarding `CC(C)=CC(=O)C[C@@]1(C)[C@@H]2[C@H]3[C@@H](C)CC[C@]3(O)[C@@H](C)CC[C@@H]21`, the IC50 in the series with PC-3 was 13.1 µM; in the series on A549, 20.8 µM; with MCF7, 15.1 µM.

As to `C=C1CC[C@H](C)[C@@](C)(CCC2=CC(OCC)OC2=O)C/C=C\C=C/1C(=O)O` (stereo partly specified), the 50% inhibitory concentration (IC50) with PC-3, with A549 and in the series with MCF7 was greater than 40 µM throughout. In addition, the outcome in the series listed under Mus musculus [2] and in the series listed under Mus musculus [4] was inactive. Moreover, the EC50 in series [1] was determined as 12 µM; with Artery (Rattus norvegicus, Wistar, Artery) it was 37 µM. In addition, the figures for the “inhibition (INH)” value (in series [1]; at L-type calcium channel [3]; on L-type calcium channel [5]) were “Dose-dependent effect”, “Dose-dependent effect” and “Active”, respectively. In addition, the “%max” value in the series with Artery turned out to be 20%.

In the case of `C=C(C)[C@H]1C[C@H]2C(=C)CCC[C@]2(C)C[C@@H]1O`, the 50% inhibitory concentration (IC50) in the series with PC-3, in the series with A549 and in the series with MCF7 was greater than 40 µM each time.

As to `CC1(C)[C@@H]2[C@@H]3[C@H](CC[C@@]3(C)O)[C@@](C)(O)CC[C@@H]21`, the IC50 with PC-3, in the series on A549 and with MCF7 was greater than 40 µM each time.

Consider `CC1(C)[C@@H]2[C@@H]3[C@H](CC[C@@]3(C)O)C(=O)CC[C@@H]21`, for which the IC50 with PC-3, in the series on A549 and in the series with MCF7 was greater than 40 µM in each case.

Regarding `CC1(C)[C@@H]2[C@H]3[C@H](CC[C@@]3(C)O)[C@](O)(CO)CC[C@@H]21`, the IC50 in the series on PC-3, with A549 and in the series with MCF7 was greater than 40 µM in each case.

As to `C=C1CC[C@H](C)[C@@](C)(CCC2=CC(O)OC2=O)C/C=C\C=C/1C(=O)O` (stereo partly specified), the IC50 in the series on PC-3, in the series with A549 and in the series with MCF7 was greater than 40 µM in each case. Further, the EC50 in [1] was determined as 4.1 µM. The “inhibition (INH)” value in series [1] is “Dose-dependent effect”.

`COc1cccc2c1C(=O)c1c(O)c3c(c(O)c1C2=O)C[C@@](O)(C(=O)CO)C[C@@H]3O[C@H]1C[C@H](N)[C@H](O)[C@H](C)O1` [DOXORUBICIN HYDROCHLORIDE]: the IC50 turned out to be 0.8 µM with PC-3, 0.1 µM in the series on A549 and 0.4 µM in the series on MCF7.

Regarding `C[C@H]1CC[C@@]2(C)C(C(=O)O)=CCC[C@H]2[C@]1(C)CCC1=CCOC1=O`, the IC50 in the series on PC-3, in the series on A549 and in the series with MCF7 was greater than 40 µM throughout. In addition, the EC50 in series [1] worked out at 7.3 µM. Further, the “inhibition (INH)” value in series [1] is on record as “Dose-dependent effect”.
